Where a SMILES comes first, the peptide text is derived from it. [ ]: non-standard residue; d: D form. pGlu = O=C1CC[C@@H](C(=O)O)N1
Columns and labels:
[1] = target: T1, TRH-DE (Sus scrofa, UniProt A0A287AP33); experiment: HPLC assay of peptide hydrolysis by TRH-DE (Glp production); type: biochemical, porcine; settings: 1 mM peptide incubated with TRH-DE 18 h at 37° C., HPLC
T1 construct: The inventor purified TRH-DE from porcine brain according to purification procedures previously published by Dr. K. Bauer; from tissue; host or cells: porcine brain (TRH-DE); bovine kidney (DPP-IV, gift from Dr. C. H. Williams)
Procedure, shortened: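 Porcine brain TRH-DE incubated with 1 mM peptide in 20 mM potassium phosphate, pH 7.5, 37 °C: screen with 0.8 μg enzyme for 18 h; rate microassays with 0.8-3.2 μg enzyme for 5 min to 18 h, in triplicate. Reactions stopped with TFA; Glp quantified by C-18 reverse-phase HPLC, UV 206 nm.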

[2] = target: TRH receptors in rat cortical membranes; experiment: radioligand binding to ^3H-3MeHis-TRH-labelled receptors in rat cortex; settings: competition with 6-8 nM ^3H-3MeHis-TRH, Cheng-Prusoff
Procedure: Evaluation of the ability of TRH, Glp-Asn-ProNH2, and Glp-Asn-ProAMC to bind to ^3H-3MeHis-TRH-labelled receptors in rat cortex: Radioligand binding assays were conducted to investigate the possibility that the two TRH-DE inhibitors might exert their effects by acting independently at TRH receptors in the brain.
Cortex tissue from male Sprague-Dawley rats (250 g) was dissected out, weighed and homogenised in 30 volumes of ice-cold sodium phosphate buffer (0.02 M, pH 7.5). The homogenates were centrifuged at 30,000 g at 4° C. for 30 min. The supernatant was discarded and the pellet was resuspended at 100 mg wet wt/ml in buffer containing 177 μM bacitracin. […] Non-specific binding was defined in the presence of 10 μM TRH.
The statistical significance of differences between behavioural effects of treatments was determined using the Student's t-test or ANOVA, followed by a post-ANOVA test, as indicated. Radioligand binding data were analysed using non-linear curve fitting software (Prism, Graph Pad Software Inc.). IC50 values calculated from competition experiments were converted to Ki values using the Cheng-Prusoff (41) equation Ki=IC50/(1+L/Kd), where L=ligand concentration and Kd=the apparent dissociation constant for [^3H]-[3-MeHis]TRH.

T1 sequence (A0A287AP33 1-1066): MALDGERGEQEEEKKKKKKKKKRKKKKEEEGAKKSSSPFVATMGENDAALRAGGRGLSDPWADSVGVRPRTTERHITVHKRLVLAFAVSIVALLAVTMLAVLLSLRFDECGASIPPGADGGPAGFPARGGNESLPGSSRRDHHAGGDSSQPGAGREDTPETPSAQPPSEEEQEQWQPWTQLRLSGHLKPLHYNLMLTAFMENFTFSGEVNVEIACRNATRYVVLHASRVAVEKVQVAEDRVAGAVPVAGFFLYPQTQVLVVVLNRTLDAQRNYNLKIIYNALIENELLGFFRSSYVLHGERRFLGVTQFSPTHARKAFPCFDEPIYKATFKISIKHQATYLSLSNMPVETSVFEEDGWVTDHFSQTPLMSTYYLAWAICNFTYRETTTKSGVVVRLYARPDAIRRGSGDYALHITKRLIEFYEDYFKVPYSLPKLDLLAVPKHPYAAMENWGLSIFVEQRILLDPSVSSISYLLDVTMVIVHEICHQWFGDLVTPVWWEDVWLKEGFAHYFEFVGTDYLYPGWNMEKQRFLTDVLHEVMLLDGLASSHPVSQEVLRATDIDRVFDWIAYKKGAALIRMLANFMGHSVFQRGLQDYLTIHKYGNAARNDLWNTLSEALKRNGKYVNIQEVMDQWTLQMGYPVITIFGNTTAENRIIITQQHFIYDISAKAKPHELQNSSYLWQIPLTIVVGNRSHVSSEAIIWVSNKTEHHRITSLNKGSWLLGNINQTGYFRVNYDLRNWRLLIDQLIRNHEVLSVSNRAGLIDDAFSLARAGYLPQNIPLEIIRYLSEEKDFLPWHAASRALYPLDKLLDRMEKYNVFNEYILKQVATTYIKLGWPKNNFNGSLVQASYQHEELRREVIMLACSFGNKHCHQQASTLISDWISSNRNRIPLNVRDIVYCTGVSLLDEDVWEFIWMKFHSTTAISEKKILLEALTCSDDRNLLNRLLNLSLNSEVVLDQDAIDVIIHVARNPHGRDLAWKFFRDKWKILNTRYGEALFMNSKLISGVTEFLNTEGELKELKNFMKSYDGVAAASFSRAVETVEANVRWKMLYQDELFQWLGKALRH

hydrolysis by TRH-DE (release of Glp) [1]: No detectable Glp | pKi [2]: 5.15±0.24
Compound: NC(=O)C[C@H](NC(=O)[C@@H]1CCC(=O)N1)C(=O)N1CCC[C@H]1C(N)=O [Glp-Asn-ProNH2, pyroglutamyl-asparaginyl-prolineamide] ([pGlu]-Asn-Pro-NH2)

Source: US7378397B2 (The Provost, Fellows and Scholars of the College of the …, priority 2000, dated 2008)
